Results: patent publication US20260345555A1, “Compositions and Methods for Protecting Salivary Glands from Off-Target Radiation Damage” (University of Rochester, priority 2022, published 2026)
Entries after “also recorded” stand apart in the source; their conditions may differ. One block for each compound: values may come before it.

What was measured:
[1] = system: γH2AX foci per nucleus in mouse submandibular gland; test: In vivo radioprotection of mouse salivary gland: γH2AX foci per nucleus (IHC) 48 hours after 15 Gy, retroductal injection
Procedure: Female SKH1 hairless mice, backcrossed 6 generations with C57BL/6J mice, aged 6-12 weeks were used in this study for in vitro assay development and drug discovery. Female C57BL/6J mice age 6-8 weeks were used for in vivo validation studies. […] Animals were maintained on a 12 hr light/dark cycle and group-housed with food and water available ad libitum.
Briefly, 6-10 week old female C57Bl/6 J mice were anesthetized by intraperitoneal injection of sterile saline solution of 100 mg/kg ketamine and 10 mg/kg xylazine. Maxillary incisors were secured over a metal beam, while an elastic band provided tension from behind the mandibular incisors. The mouth was widened using a custom steel retractor to apply pressure to the buccal mucosa and the tongue was retracted and cotton placed in the oral cavity. The wire inset of a 32 G intracranial catheter was cut at […] to create a bevel. The beveled wire created a shallow puncture in the left salivary papilla. A beveled catheter section containing the wire insert for support was gently inserted into the puncture site. The catheter was removed, and 1 mg/kg atropine was administered by intraperitoneal injection. After 10 min, the needle of a Hamilton syringe, loaded with vehicle or drug solution, was inserted into the catheter, and the catheter was inserted into the orifice produced in the papilla. Drug solutions were injected by hand at 10 μl/min at a volume of 1 μl/g of body weight. Following injection, the pressure was maintained on the syringe for 1 min to ensure material retention before removal of the catheter.
The head and neck region was positioned over the slit of a custom collimator, which allowed body shielding.
Submandibular glands and SGm were isolated and fixed in 4% paraformaldehyde overnight at 4 °C. Tissues were paraffin-embedded and then cut into […] sections. […] Permeabilization was performed with 0.5% Triton X-100 in PBS for 5 minutes. […] Following a PBS rinse, […] DAPI (Invitrogen, Carlsbad, CA) in PBS was applied to sections for 5 minutes. Sections were washed thrice in PBS for 5 minutes and the slides were mounted using Immu-Mount mounting medium (Thermo). Microscopic images were acquired using a Leica TCS SP5 confocal microscope with a 100× oil immersion objective and Argon laser. Analysis of images was performed in ImageJ.

[2] = system: senescence-associated β-galactosidase in salivary gland cell clusters (SGm); test: Cellular senescence assay (SPiDER-βGal) in salivary gland tissue chip, 5 days post-radiation (15 Gy); also second screen of library hits at 100 μM; type: cell-based, mouse; details: for double hit in the drug screen: glutathione and senescence assays, 100 μM, statistically similar to 0 Gy; for Estimated EC50, Senescence: nonlinear fit in Prism of dose response curves; for Estimated EC50, Senescence / radioprotection in dose response, senescence assay / protection against radiation-induced senescence: 15 Gy; for protection against radiation-induced senescence: 5 days post-radiation; for Senescence (radioprotection): key: +: radioprotection; ~: partial radioprotection; —: no radioprotection
Excerpt: The chip platform consists of an array of near-spherical microbubble (MB) cavities formed in poly(dimethylsiloxane) (PDMS). Each chip, containing ~50 MBs, affixed within wells of a 96-well plate (FIG. 1C). Primary salivary gland cell clusters (FIG. 1A), suspended in a poly(ethylene glycol) (PEG) hydrogel precursor and MMP-degradable peptide crosslinker solution together with the photoinitiator LAP, were applied to the chip allowing the clusters to deposit into the MBs (FIG. 1D). In situ polymerization of the hydrogel was achieved using long-wave, low intensity UV light. Over time, the cell clusters aggregate and proliferate to form SGm (FIG. 1C).
For senescence, a protocol similar to the glutathione assay was followed to determine the optimal time point post-radiation for detecting a change in senescence between 0 Gy and 15 Gy, as measured by senescence-associated β-galactosidase activity.
The glutathione and senescence assays were used to screen a library of FDA-approved drugs (Selleck Chemicals) at 100 μM. Drugs were first screened using the glutathione assay according to the timeline depicted in FIG. 2A. […] Hits with the glutathione assay were then tested with the senescence assay and considered a “double hit” if senescence levels were statistically similar to levels at 0 Gy (FIG. 4, black circles).
Mice were euthanized and the submandibular glands (SMG) were removed and chopped with a razor blade for 5 min. […] Cells were centrifuged, then resuspended in HBSS with 15 mM HEPES and passed through 100 μm and 20 μm mesh filters to isolate clusters between 20-100 μm. […] The isolated clusters were combined with hydrogel precursor solution and seeded in MB array-based chips as described below.
The cell/gel precursor solution (25 μL for 48 well; 20 μL for 96 well) was pipetted onto the MB chips and incubated for 30 min, pipetting every 10 min to redisperse cells that had settled onto the surface of the chip.
A cellular senescence assay for the chips was developed by adapting the Cellular Senescence Detection Kit—SPiDER-βGal (Dojindo Molecular Technologies, Inc. SG04). Bafilomycin A1 and SPiDER-βGal stock solutions were prepared in DMSO per manufacturer directions. The assay was performed by first incubating the chips with bafilomycin A1 (1:1000 dilution in media) for 1 hr at 37 °C. […] Chips were washed twice with media and imaged using a fluorescence microscope with a Texas Red filter (Excitation: 580 nm; Emission: 604 nm).
For radioprotection experiments, SGm were cultured in MB-hydrogel chips for 4 days, then drugs were added to the chips 30 min prior to irradiation and washed out with media 30 min post-radiation treatment. […] The glutathione and senescence assays were performed at 4- and 5-days post-radiation. For assay validation experiments, at least 3 chips (N=3) were used for each drug, corresponding to >100 MBs (n>100); these values are listed in the figure description for each experiment. Mean, standard deviation, and statistics were calculated based on the number of MBs (n).
For screening of the Selleck Chemicals compound library, the same treatment scheme was used, with drugs administered at 100 μM. One MB chip (N=1) was used per compound, with ~40-50 MBs per chip […]; statistics were calculated using the number of MBs (n) and compared to 0 Gy controls.
For both the glutathione and cellular senescence assays, images were quantified in ImageJ.

[3] = phenylbutazone 50 mg/kg, corn oil

- Estimated EC50, Senescence [2]: 500 nM
Compound: CCn1cc(C(=O)O)c(=O)c2cc(F)c(N3CCNCC3)nc21 [Enoxacin (Penetrex)]
- reduction in γH2AX foci per nucleus compared to 15 Gy controls ([1]; enoxacin 0.3 mg/kg): 0.5 fold
- increase in γH2AX foci per nucleus ([1]; enoxacin 0.3 mg/kg, comparator not given): 1.6 fold
- double hit in the drug screen [2]: double hits

- Estimated EC50, Senescence [2]: 50 nM
Compound: CCCCC1C(=O)N(c2ccccc2)N(c2ccccc2)C1=O [Phenylbutazone]
- reduction in γH2AX foci per nucleus compared to 15 Gy controls [1, 3]: 0.4 fold
- γH2AX foci per nucleus versus 0 Gy controls [1, 3]: not significantly different from 0 Gy controls
- radioprotection in dose response, senescence assay [2]: only partial protection

Compound: NCCCNCCS [WR-1065]
- reduction in γH2AX foci per nucleus compared to 15 Gy controls ([1]; WR-1065 50 mg/kg): 0.5 fold
- γH2AX foci per nucleus versus 0 Gy controls ([1]; WR-1065 50 mg/kg): No significant differences
- Senescence (radioprotection) ([2]; 1 mM): +
- protection against radiation-induced senescence ([2]; 1 mM): complete radioprotection
- Senescence (radioprotection) ([2]; 4 mM): +
- protection against radiation-induced senescence ([2]; 4 mM): complete radioprotection; also recorded: restored to levels equivalent to 0 Gy

- Estimated EC50, Senescence [2]: 16400 nM
Compound: Doripenem hydrate
- increase in γH2AX foci per nucleus compared to 0 Gy controls ([1]; doripenem hydrate 26 mg/kg): 2.7 fold
- reduction of γH2AX foci per nucleus relative to 15 Gy controls ([1]; doripenem hydrate 26 mg/kg): did not reduce
- radioprotection in dose response, senescence assay [2]: variable protection
- double hit in the drug screen [2]: double hits
